{"source": "patent US6515020B1", "about": "“Combination of carnitines and resveratrol for prevention or treatment of cerebral and ageing disorders” (Sigma-Tau HealthScience S.p.A., priority 1998, dated 2003)", "key": {"[1]": {"test_system": "pheochromocytoma cells (PC-12)", "assay": "Survival of pheochromocytoma cells (PC-12) exposed to H2O2", "type": "cell-based", "conditions": "for survival rate: 0.1 mM H2O2 30 minutes", "protocol": "Tests of survival of pheochromocytoma cells (PC-12) exposed to H2O2 and treated with L-carnitine or resveratrol or with the two products in combination\nA culture of pheochromocytoma cells (PC-12) containing 3×10^5 N-cells/ml was exposed to 0.1 mM concentrations of H2O2 for 30 minutes. While the survival of the cells treated with H2O2 alone was approximately 45% after 24 hours, the survival of the cells treated with L-carnitine or with resveratrol was substantially greater, with survival rates of 55, 60 and 62%, respectively, for cells treated with L-carnitine, acetyl L-carnitine and propionyl L-carnitine at concentrations of 10^−8 M, and a survival rate of 69% for cells treated with resveratrol at the concentration of 10^−4 M."}, "[2]": {"test_system": "spontaneous motility of endothelin (ET-1)-treated mice", "assay": "Spontaneous motility of mice reduced by intracerebral endothelin (ET-1)", "type": "in vivo", "source_text": "One of the effects of a vasoactive peptide and neuromodulator such as endothelin is the influence it exerts on animal behaviour in reducing the animals' motility and vestibular reactions.\nIn these tests, we were able to observe that the typical action of endothelin (ET-1) injected intracerebrally in mice at the dose of 1 pmol/mouse, which is to substantially reduce the animals' spontaneous motility, can be inhibited to a very significant extent by prior administration of carnitines and resveratrol, and, particularly, that the combination of these two types of substances is capable of acting synergistically, restoring the motility reduced by endothelin administration almost to normal values.\nThe values were observed, keeping 10 mice at a time placed in a container with a photocell and an automatic movement counter; the count was done by observing the mice for periods of 5 minutes 15 minutes after the endothelin (ET-1) injection."}, "[3]": {"test_system": "sensory neuronal lesions induced by cisplatin", "type": "in vivo, mouse", "conditions": "cisplatin-treated mice; 10 animals per group", "protocol": "In these tests, cisplatin was used as a neuronal toxic factor, capable, particularly, of producing lesions in the sensory neurones and thus of impairing proprioceptive perception. The tests evaluated the ability of carnitines, resveratrol and combinations of these substances to restore peripheral sensory perception in the mouse impaired by injection of cisplatin. This ability was assessed by evaluating the reaction to thermal pain induced by a heated water solution in which the animals' tails were dipped according to the tail-flick test, or using the rotating bar test (Apfel S.C., Lipton R.B., Ann. Neurol., 29, 87-90, 1991).\nCisplatin was administered subcutaneously at the dose of 10 mg/kg for eight consecutive days. Over the same period the mice received injections of 100 mg/kg of carnitines and 2.5 mg/kg of resveratrol or combinations of these products.\nThe values observed, in fact, were 13.5 seconds in the animals treated with acetyl L-carnitine plus resveratrol and 14.4 seconds in those treated with propionyl L-carnitine plus resveratrol."}, "[4]": {"conditions": "carnitines 300 mg/kg intra-peritoneally for three days preceding and half an hour before ET-1 injection"}}, "data": [{"smiles": "OO", "note": "[H2O2]", "values": [{"measurement": "survival of the cells", "setting": "[1]; 0.1 mM H2O2 alone for 30 minutes, after 24 hours", "result": "approximately 45%"}]}, {"smiles": "C[N+](C)(C)C[C@H](O)CC(=O)[O-]", "note": "[L-carnitine]", "values": [{"measurement": "motility reduction percentage", "setting": "[2]; [4]", "result": 69.6, "unit": "%"}, {"measurement": "survival rate", "setting": "[1]; carnitine at 10^−8 M", "result": 55, "unit": "%"}]}, {"smiles": "CC(=O)O[C@H](CC(=O)[O-])C[N+](C)(C)C", "note": "[acetyl L-carnitine]", "values": [{"measurement": "motility reduction percentage", "setting": "[2]; [4]", "result": 65.5, "unit": "%"}, {"measurement": "survival rate", "setting": "[1]; carnitine at 10^−8 M", "result": 60, "unit": "%"}]}, {"smiles": "CC[C@H](C)[C@H](NC(=O)[C@H](CC(=O)O)NC(=O)[C@H](CC(C)C)NC(=O)[C@H](Cc1c[nH]cn1)NC(=O)[C@@H]1CSSC[C@H](N)C(=O)N[C@@H](CO)C(=O)N[C@H]2CSSC[C@H](NC(=O)[C@H](CCC(=O)O)NC(=O)[C@H](CCCCN)NC(=O)[C@H](CC(=O)O)NC(=O)[C@H](CCSC)NC(=O)[C@H](CC(C)C)NC(=O)[C@H](CO)NC(=O)[C@H](CO)NC2=O)C(=O)N[C@@H](C(C)C)C(=O)N[C@@H](Cc2ccc(O)cc2)C(=O)N[C@@H](Cc2ccccc2)C(=O)N1)C(=O)N[C@H](C(=O)N[C@@H](Cc1c[nH]c2ccccc12)C(=O)O)[C@@H](C)CC", "note": "[endothelin]", "values": [{"measurement": "motility reduction percentage", "setting": "[2]; endothelin alone, 1 pmol/mouse intracerebrally, count for 5 minutes, 15 minutes after injection", "result": 85.5, "unit": "%"}]}, {"smiles": "CCC(=O)O[C@H](CC(=O)[O-])C[N+](C)(C)C", "note": "[propionyl L-carnitine]", "values": [{"measurement": "motility reduction percentage", "setting": "[2]; [4]", "result": 60.3, "unit": "%"}, {"measurement": "survival rate", "setting": "[1]; carnitine at 10^−8 M", "result": 62, "unit": "%"}]}, {"smiles": "Oc1ccc(/C=C/c2cc(O)cc(O)c2)cc1", "note": "[resveratrol, trans-3,4′,5-trihydroxy-stilbene]", "values": [{"measurement": "motility reduction percentage", "setting": "[2]; alone, resveratrol 2.5 mg/kg, ET-1 treated mice", "result": 60.4, "unit": "%"}, {"measurement": "survival rate", "setting": "[1]; resveratrol at 10^−4 M", "result": 69, "unit": "%"}, {"measurement": "increase in equilibrium time", "setting": "[3]", "result": "significant increase"}]}]}
